The source made the active and inactive calls.
Key:
[1] = molecular target: T1, Rac GTPase-activating protein 1 (Homo sapiens, UniProt Q9H0H5); experiment: MgcRacGAP GTPase-activating activity inhibitors, confirmation, biochemical, ADP Hunter fluorescence, primary and confirmatory (AID 624330); format: functional
T1 sequence (Q9H0H5 whole entry): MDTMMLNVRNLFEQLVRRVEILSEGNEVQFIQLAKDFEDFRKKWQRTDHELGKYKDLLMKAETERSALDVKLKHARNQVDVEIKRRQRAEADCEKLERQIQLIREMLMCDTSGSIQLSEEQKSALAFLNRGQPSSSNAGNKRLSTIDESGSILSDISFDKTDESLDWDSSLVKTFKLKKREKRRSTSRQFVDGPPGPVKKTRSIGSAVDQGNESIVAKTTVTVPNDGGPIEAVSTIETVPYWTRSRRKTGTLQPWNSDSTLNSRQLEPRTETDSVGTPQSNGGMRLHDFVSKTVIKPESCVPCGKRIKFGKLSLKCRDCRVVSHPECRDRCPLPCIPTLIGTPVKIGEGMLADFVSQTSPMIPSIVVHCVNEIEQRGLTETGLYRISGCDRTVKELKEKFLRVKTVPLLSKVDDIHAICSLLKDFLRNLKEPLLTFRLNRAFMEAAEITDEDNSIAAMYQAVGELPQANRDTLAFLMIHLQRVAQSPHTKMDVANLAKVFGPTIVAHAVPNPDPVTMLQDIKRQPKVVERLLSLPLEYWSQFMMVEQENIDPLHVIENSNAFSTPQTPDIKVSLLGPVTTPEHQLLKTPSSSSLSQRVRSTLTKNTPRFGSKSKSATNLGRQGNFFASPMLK

[2] = molecular target: Dual specificity tyrosine-phosphorylation-regulated kinase 1A (Rattus norvegicus, UniProt Q63470); format: biochemical, Homo sapiens
[3] = Luminescence Cell-Based Dose Retest to Confirm Inhibitors of Cancer Stem Cells. [Related pubchem assays (depositor defined):AID2717, AID2721]; format: functional; details: Homo sapiens
[4] = system: Streptococcus sp. 'group A'; experiment: growth inhibition of control SK(-) GAS strain, dose response, counter-screen for streptokinase expression inhibitor project, luminescence, kanamycin, BacTiterGlo, confirmation (AID 1900); format: functional, organism-based
[5] = cytotoxicity in HMLE control line with eGFP shRNA, dose response, counter-screen for HMLE_sh_ECad selective toxicity project, cell-based, HMLE_sh_eGFP, luminescence (AID 463074); format: functional, Homo sapiens;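 further: HMLE human mammary epithelial cells expressing control shRNA against eGFP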
Streptococcus = experiment: Group A Streptococcus viability loss, dose response, counter-screen for streptokinase expression inhibitor project, luminescence, BacTiterGlo (AID 1915); format: functional, organism-based;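 further: potency for reduction of bacterial viability or growth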
[6] = molecular target: 5-hydroxytryptamine receptor 5A (Homo sapiens, UniProt P47898); experiment: Counterscreen for agonists of OPRM1-OPRD1 heterodimerization: luminescence-based cell-based high throughput dose response assay to identify agonists of 5-hydroxytryptamine (serotonin) 5A receptor (HTR5A). [Related pubchem assays (depositor defined):AID504326, AID504355, AID504692, AID504904, AID504905]; format: functional
Sequence of 5-hydroxytryptamine receptor 5A (P47898 whole entry): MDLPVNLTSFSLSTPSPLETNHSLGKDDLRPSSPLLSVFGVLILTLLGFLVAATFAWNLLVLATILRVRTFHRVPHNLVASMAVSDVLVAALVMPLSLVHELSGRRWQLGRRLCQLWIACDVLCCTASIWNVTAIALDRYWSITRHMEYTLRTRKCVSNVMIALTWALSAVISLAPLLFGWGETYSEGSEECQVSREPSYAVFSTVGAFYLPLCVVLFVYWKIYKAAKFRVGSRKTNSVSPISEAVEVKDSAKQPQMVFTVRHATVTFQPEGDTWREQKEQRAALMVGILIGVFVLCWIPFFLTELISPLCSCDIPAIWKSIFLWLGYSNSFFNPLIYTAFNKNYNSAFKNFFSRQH

[7] = molecular target: Delta-type opioid receptor (Homo sapiens, UniProt P41143); experiment: Counterscreen for agonists of heterodimerization of the mu 1 (OPRM1) and delta 1 (OPRD1) opioid receptors: Luminescence-based cell-based high throughput dose response assay to identify agonists of OPRD1 homodimerization. [Related pubchem assays (depositor defined):AID504326, AID504355, AID504692, AID504904, AID504905]; format: functional
Sequence of Delta-type opioid receptor (P41143 whole entry): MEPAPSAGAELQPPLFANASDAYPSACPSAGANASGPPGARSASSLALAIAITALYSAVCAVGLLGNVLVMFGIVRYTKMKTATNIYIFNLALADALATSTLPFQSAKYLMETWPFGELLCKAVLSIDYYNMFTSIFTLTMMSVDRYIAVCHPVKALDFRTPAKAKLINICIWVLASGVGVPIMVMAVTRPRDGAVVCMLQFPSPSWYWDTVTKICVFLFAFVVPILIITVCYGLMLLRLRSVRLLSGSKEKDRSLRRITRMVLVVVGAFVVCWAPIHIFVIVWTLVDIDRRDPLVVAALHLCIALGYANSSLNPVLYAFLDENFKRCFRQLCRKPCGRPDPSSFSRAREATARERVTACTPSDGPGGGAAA

[8] = molecular target: Opioid receptors; mu & delta (Homo sapiens, UniProt P41143+P35372); experiment: agonists of MOR-DOR heterodimerization, dose response, cell-based, luminescence (AID 588407); format: functional
Mu-type opioid receptor = Mu-type opioid receptor (Homo sapiens, UniProt P35372); experiment: Counterscreen for agonists of heterodimerization of the mu 1 (OPRM1) and delta 1 (OPRD1) opioid receptors: Luminescence-based cell-based high throughput dose response assay to identify agonists of OPRM1 homodimerization.; format: functional;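 further: U2OS cells expressing OPRM1 and beta-arrestin as split beta-galactosidase partners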
Sequence of Mu-type opioid receptor (P35372 whole entry): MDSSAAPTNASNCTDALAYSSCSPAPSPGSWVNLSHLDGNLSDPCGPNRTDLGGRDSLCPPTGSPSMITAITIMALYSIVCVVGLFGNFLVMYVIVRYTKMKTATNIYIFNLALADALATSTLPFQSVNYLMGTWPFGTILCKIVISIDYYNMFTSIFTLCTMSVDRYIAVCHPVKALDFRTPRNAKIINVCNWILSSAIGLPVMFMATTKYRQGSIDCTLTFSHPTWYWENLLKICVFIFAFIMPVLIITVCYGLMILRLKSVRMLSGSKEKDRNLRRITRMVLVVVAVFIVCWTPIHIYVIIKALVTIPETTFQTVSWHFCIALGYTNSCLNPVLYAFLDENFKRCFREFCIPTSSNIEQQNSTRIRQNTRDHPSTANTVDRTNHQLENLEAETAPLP

[9] = molecular target: T2, Short transient receptor potential channel 4 (Mus musculus, UniProt Q9QUQ5); experiment: mouse TRPC4 channel activators, dose response, cell-based, HEK293 TRPC4/mu-opioid, Fluo-4 calcium (AID 434937); format: functional
T2 sequence (Q9QUQ5 whole entry): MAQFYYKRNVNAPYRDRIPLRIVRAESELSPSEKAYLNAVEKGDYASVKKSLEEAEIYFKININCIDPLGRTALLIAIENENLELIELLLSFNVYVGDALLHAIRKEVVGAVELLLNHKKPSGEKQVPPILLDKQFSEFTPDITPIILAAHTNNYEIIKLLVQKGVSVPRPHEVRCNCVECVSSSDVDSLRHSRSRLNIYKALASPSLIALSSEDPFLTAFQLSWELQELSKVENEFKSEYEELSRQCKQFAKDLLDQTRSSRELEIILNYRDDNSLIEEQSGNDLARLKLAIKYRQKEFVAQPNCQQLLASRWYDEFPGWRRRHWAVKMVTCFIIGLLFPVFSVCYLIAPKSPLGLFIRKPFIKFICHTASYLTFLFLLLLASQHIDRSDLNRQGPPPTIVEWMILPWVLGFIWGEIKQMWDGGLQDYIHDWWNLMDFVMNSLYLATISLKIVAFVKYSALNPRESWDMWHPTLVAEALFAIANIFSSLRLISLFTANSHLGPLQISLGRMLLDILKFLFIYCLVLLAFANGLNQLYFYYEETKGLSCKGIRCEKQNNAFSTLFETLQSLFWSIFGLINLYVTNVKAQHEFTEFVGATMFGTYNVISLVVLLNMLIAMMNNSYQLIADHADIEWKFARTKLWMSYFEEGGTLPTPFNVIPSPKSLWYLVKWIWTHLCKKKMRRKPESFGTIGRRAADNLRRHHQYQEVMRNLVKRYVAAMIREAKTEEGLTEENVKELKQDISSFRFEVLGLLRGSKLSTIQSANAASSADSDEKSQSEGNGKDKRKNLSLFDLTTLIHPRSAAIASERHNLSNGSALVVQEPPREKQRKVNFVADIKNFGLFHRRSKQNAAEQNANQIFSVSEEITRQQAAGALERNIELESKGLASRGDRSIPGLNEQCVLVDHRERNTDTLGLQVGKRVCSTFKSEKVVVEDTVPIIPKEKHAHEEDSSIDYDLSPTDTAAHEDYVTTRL

[10] = inhibitors of intracellular T. cruzi replication, confirmation, NIH3T3 host cells, beta-gal luminescence (AID 2044); format: functional, cell-based;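 further: intracellular parasites grown in NIH/3T3 mouse fibroblasts as host cells; luminescent beta-galactosidase reporter signal from transgenic T. cruzi replicating inside host cells; inhibitors lower the luminescence signal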
[11] = Luminescence Cell-Based Secondary HTS screen to identify cytotoxic compounds of NIH3T3 cells. [Related pubchem assays: 1885, 1968 ]; format: functional
[12] = inhibitors of Trypanosoma cruzi host-cell infection, confirmation, beta-gal luminescence, NIH3T3 host cells (AID 2630); format: functional, cell-based; details: Mus musculus
[13] = cytotoxicity toward NIH3T3 fibroblasts, dose response, counter-screen, cell-based, ATP luminescence, mouse fibroblasts (AID 2010); format: functional;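 further: cells exposed to compound for about 90 hours before reading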
[14] = Luminescence Cell-Based/Microorganism Confirmation at Dose of Inhibitors of Trypanosoma cruzi Infection. [Related pubchem assays: 1885, 1968 ]; format: functional
[15] = molecular target: T3, Serine/threonine-protein phosphatase (Candida dubliniensis (strain CD36 / CBS 7987 / NCPF 3949 / NRRLY-17841) (Yeast), UniProt B9W6M3); experiment: Fluorescence Cell-Based Secondary Assay to Identify Inhibitors of Calcineurin. [Related pubchem assays (depositor defined):AID1979, AID2007]; format: functional
T3 sequence (B9W6M3 whole entry): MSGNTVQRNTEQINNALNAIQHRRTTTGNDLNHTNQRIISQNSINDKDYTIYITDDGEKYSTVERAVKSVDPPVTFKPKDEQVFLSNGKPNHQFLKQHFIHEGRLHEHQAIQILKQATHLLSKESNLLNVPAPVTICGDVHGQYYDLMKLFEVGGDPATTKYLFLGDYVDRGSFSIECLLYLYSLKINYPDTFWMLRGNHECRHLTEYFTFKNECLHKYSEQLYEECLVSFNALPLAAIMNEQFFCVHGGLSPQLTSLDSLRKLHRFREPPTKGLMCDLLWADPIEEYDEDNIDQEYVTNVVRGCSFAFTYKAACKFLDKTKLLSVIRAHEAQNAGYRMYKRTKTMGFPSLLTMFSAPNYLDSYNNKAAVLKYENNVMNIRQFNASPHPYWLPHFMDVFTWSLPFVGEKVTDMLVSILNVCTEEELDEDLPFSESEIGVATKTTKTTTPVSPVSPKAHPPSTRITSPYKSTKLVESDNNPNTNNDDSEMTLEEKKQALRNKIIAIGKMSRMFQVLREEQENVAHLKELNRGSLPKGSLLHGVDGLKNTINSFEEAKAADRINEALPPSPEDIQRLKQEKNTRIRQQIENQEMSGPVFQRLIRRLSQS

[16] = molecular target: T3, Serine/threonine-protein phosphatase; experiment: calcineurin pathway inhibitors in yeast reporter, dose response, S. cerevisiae, CDRE-lacZ, luminescence, secondary (AID 2388); format: functional, cell-based;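 further: yeast reporter cells carrying a calcineurin-responsive lacZ construct stimulated with calcium chloride; luminescent beta-galactosidase reporter signal in whole cells rather than isolated phosphatase activity; potency for inhibition where a drop in reporter signal means calcineurin blockade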
[17] = C. albicans growth with fluconazole, confirmation, fluorescence, retest (AID 2467); format: functional, cell-based
[18] = molecular target: Heat shock protein HSP 90-alpha (Homo sapiens, UniProt P07900); format: functional, organism-based
[19] = NIH-3T3 fibroblast cytotoxicity, dose response, cytotoxicity control, cell-based, fluorescence, Alamar Blue, secondary assay (AID 2327); format: functional;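 further: NIH-3T3 mouse fibroblasts cultured with fluconazole at 8 µg/mL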
[20] = molecular target: Dual specificity protein kinase CLK1 (Homo sapiens, UniProt P49759); experiment: CLK1 kinase inhibitors, off-target check, dose response, selectivity assay for Dyrk1A inhibitor project, biochemical, cherry-picked samples (AID 588811)
Sequence of Dual specificity protein kinase CLK1 (P49759 whole entry): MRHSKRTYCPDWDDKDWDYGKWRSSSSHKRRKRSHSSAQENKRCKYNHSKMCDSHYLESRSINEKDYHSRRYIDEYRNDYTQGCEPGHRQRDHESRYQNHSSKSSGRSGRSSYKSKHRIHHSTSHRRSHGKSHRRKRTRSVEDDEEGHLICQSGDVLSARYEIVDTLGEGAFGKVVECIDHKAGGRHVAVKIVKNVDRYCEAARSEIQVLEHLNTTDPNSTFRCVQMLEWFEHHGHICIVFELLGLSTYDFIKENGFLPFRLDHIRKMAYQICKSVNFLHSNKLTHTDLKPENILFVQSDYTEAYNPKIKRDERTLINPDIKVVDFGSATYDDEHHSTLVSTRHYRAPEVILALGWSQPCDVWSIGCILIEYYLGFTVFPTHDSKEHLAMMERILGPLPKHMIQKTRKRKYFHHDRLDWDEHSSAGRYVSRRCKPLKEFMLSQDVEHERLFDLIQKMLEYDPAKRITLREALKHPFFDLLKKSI

With `Oc1ccc(-c2csc(NCc3ccco3)n2)cc1` the IC50 [1] was 22.1 µM (active) and the AC50 [2] was 6.71 µM (active).
In the case of `CCN(c1ccccc1)S(=O)(=O)c1ccc(C(=O)Nc2nnc(-c3ccco3)o2)cc1`, the AC50 [3] is reported as 2.63 µM (active), the EC50 [4] is reported as 1.61 µM (active) and the AC50 [5] is reported as 32.4 µM (active). For the same compound, the EC50 (Streptococcus) was 5.63 µM (active).
In the case of `COc1ccc(C2Nc3ccccc3C(=O)N2Cc2ccco2)cc1COc1ccc(NC(C)=O)cc1` (centres undefined), the EC50 [6] is reported as > 92.5 µM (inactive), the EC50 [7] is reported as 0.0173 µM (active) and the EC50 [8] is reported as over 0.01406 µM. The EC50 (Mu-type opioid receptor) was > 92.5 µM (inactive) and the EC50 [9] was 0.149 µM (active).
In the case of `CCn1ncc(CN2CCCC(C(=O)c3cccc(OC(C)C)c3)C2)c1C` (centres undefined), the EC50 [10] is reported as < 0.1 µM (active), the EC50 [11] is reported as > 195 µM (not active) and the EC50 (cells) is reported as 0.032 µM (active). The EC50 [12] was 0.062 µM (active), the EC50 [13] was > 60 µM (inconclusive) and the EC50 [14] was 0.062 µM (active).
In the case of `O=C(NNC1=C(C(=O)C(F)(F)F)CCC1)c1ccc(Cl)cc1`, the EC50 [15] is reported as 13.5 µM (active), the AC50 [3] is reported as 2.75 µM (active) and the EC50 [16] is reported as > 180 µM (inactive). For the same compound, the EC50 [17] was 0.126 µM (active), the AC50 [18] was 3.37 µM (active) and the EC50 [19] was 23.5 µM (active).
For `Cc1ccsc1CN(C)c1ncnc2ccc(-c3ccc(CO)o3)cc12`, the AC50 [20] was 0.0161 µM (active).

Reference: ChEMBL document CHEMBL1201862, “PubChem BioAssay data set” (2004)
